# How the values were obtained:
# Assay in all cases: relative viability (nuclei count vs DMSO), 5 days (fraction); higher = more cells survive
# UMC-11 = settings: first compound 4 µM
# Summary of the method: (§1)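 Lung cancer cell lines were seeded in 1536-well plates and dosed by pin tool the next day, with either a single drug or a fixed anchor-drug dose combined with five library-drug doses (not always all listed) spaced in √10 steps. Five days later, one step fixed the cells and stained their nuclei (final 0.05% Triton X-100, 1% formaldehyde, 1 ug/ml Hoechst), and nuclei were counted on 4× images. Relative viability is the nuclei count in treated wells divided by the count in vehicle wells, and each value is the median of duplicate plates.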
# NCI-H1915 = test system: NCI-H1915
# Summary of the method: as §1
# NCI-H2023 = test system: NCI-H2023
# Summary of the method: as §1
# NCI-H441 = test system: NCI-H441
# Summary of the method: as §1
# COR-L 105 = test system: COR-L 105
# Summary of the method: as §1
# ChaGo-K-1 = test system: ChaGo-K-1
# Summary of the method: as §1
# ABC-1 = test system: ABC-1
# Summary of the method: as §1
# CAL-12T = test system: CAL-12T
# Summary of the method: as §1
# NCI-H3122 = test system: NCI-H3122
# Summary of the method: as §1
# NCI-H358 = test system: NCI-H358
# Summary of the method: as §1
# NCI-H1993 = test system: NCI-H1993
# Summary of the method: as §1
# NCI-H1666 = test system: NCI-H1666
# Summary of the method: as §1
# EPLC-272H = test system: EPLC-272H
# Summary of the method: as §1
smiles,measurement,setting,value
C[C@@H]1CN(CC(=O)Nc2ccc3c(c2)Cc2cccc(-c4cc(=O)cc(N5CCOCC5)o4)c2S3)C[C@H](C)O1 + Cc1cc(Nc2cc(N3CCN(C)CC3)nc(Sc3ccc(NC(=O)C4CC4)cc3)n2)n[nH]1 [Tozasertib] (partner 0.1 µM),relative viability,UMC-11,0.199
same,relative viability,NCI-H1915; first compound 0.04 µM,0.364
same,relative viability,NCI-H1915; first compound 0.1265 µM,0.422
same,relative viability,NCI-H1915; first compound 0.4 µM,0.399
same,relative viability,NCI-H1915; first compound 4 µM,0.314
same,relative viability,NCI-H2023; first compound 0.04 µM,0.406
same,relative viability,NCI-H2023; first compound 0.1265 µM,0.285
same,relative viability,NCI-H2023; first compound 0.4 µM,0.238
same,relative viability,NCI-H2023; first compound 4 µM,0.175
same,relative viability,NCI-H441; first compound 0.04 µM,0.601
same,relative viability,NCI-H441; first compound 0.1265 µM,0.678
same,relative viability,NCI-H441; first compound 0.4 µM,0.528
same,relative viability,NCI-H441; first compound 4 µM,0.49
same,relative viability,COR-L 105; first compound 0.04 µM,0.321
same,relative viability,COR-L 105; first compound 0.1265 µM,0.332
same,relative viability,COR-L 105; first compound 0.4 µM,0.352
same,relative viability,COR-L 105; first compound 4 µM,0.296
same,relative viability,ChaGo-K-1; first compound 0.04 µM,0.264
same,relative viability,ChaGo-K-1; first compound 0.1265 µM,0.209
same,relative viability,ChaGo-K-1; first compound 0.4 µM,0.226
same,relative viability,ChaGo-K-1; first compound 4 µM,0.173
same,relative viability,ABC-1; first compound 0.1265 µM,0.159
same,relative viability,ABC-1; first compound 0.4 µM,0.184
same,relative viability,ABC-1; first compound 4 µM,0.16
same,relative viability,CAL-12T; first compound 0.04 µM,0.306
same,relative viability,CAL-12T; first compound 0.1265 µM,0.366
same,relative viability,CAL-12T; first compound 0.4 µM,0.296
same,relative viability,CAL-12T; first compound 4 µM,0.217
same,relative viability,NCI-H3122; first compound 0.04 µM,0.4
same,relative viability,NCI-H3122; first compound 0.1265 µM,0.403
same,relative viability,NCI-H3122; first compound 0.4 µM,0.265
same,relative viability,NCI-H3122; first compound 4 µM,0.293
same,relative viability,NCI-H358; first compound 0.04 µM,0.13
same,relative viability,NCI-H358; first compound 0.1265 µM,0.0927
same,relative viability,NCI-H358; first compound 0.4 µM,0.0941
same,relative viability,NCI-H358; first compound 4 µM,0.114
same,relative viability,NCI-H1993; first compound 0.04 µM,0.567
same,relative viability,NCI-H1993; first compound 0.1265 µM,0.592
same,relative viability,NCI-H1993; first compound 0.4 µM,0.52
same,relative viability,NCI-H1993; first compound 4 µM,0.569
same,relative viability,NCI-H1666; first compound 0.04 µM,0.637
same,relative viability,NCI-H1666; first compound 0.1265 µM,0.689
same,relative viability,NCI-H1666; first compound 0.4 µM,0.622
same,relative viability,NCI-H1666; first compound 4 µM,0.43
same,relative viability,EPLC-272H; first compound 0.04 µM,0.189
same,relative viability,EPLC-272H; first compound 0.1265 µM,0.237
same,relative viability,EPLC-272H; first compound 0.4 µM,0.256
same,relative viability,EPLC-272H; first compound 4 µM,0.243

# From the supplement of paper PMC10307832
